Source: ChEMBL document CHEMBL2412996, “Increase of anti-HIV activity of C-peptide fusion inhibitors using a bivalent drug design approach” (Bioorg Med Chem Lett, 2013)
Square brackets hold non-standard residues; d marks the D form. Peptide text beside a SMILES is read from it. Ahx = NCCCCCC(=O)O; βAla = NCCC(=O)O

Legend:
Format in all cases: cell-based
TZM-bl [1] = assay: Inhibition of HIV1 HXB2 gp160-mediated cell-cell fusion between viral envelope expressing human HL2/3 cells to human TZM-bl cells expressing CD4, tat, and rev by luciferase reporter gene assay relative to C22; settings: Human immunodeficiency virus 1
[2] = Inhibition of HIV1 HXB2 gp160-mediated cell-cell fusion between viral envelope expressing human HL2/3 cells to human TZM-bl cells expressing CD4, tat, and rev by luciferase reporter gene assay; settings: Human immunodeficiency virus 1, HXB2, TZM-bl
TZM-bl [3] = assay: Inhibition of HIV1 HXB2 gp160-mediated cell-cell fusion between viral envelope expressing human HL2/3 cells to human TZM-bl cells expressing CD4, tat, and rev by luciferase reporter gene assay relative to SC22EK; settings: Human immunodeficiency virus 1
TZM-bl [4] = assay: Inhibition of HIV1 HXB2 gp160-mediated cell-cell fusion between viral envelope expressing human HL2/3 cells to human TZM-bl cells expressing CD4, tat, and rev by luciferase reporter gene assay relative to C29; settings: Human immunodeficiency virus 1

Structure (SMILES) | Ratio (TZM-bl [1]) | IC50 [2] | Ratio (TZM-bl [3]) | Ratio (TZM-bl [4])
CC[C@H](C)[C@H](NC(=O)[C@H](CC(C)C)NC(=O)[C@H](CO)NC(=O)[C@H](Cc1cnc[nH]1)NC(=O)[C@@H](NC(=O)[C@H](CC(C)C)NC(=O)[C@H](CO)NC(=O)[C@@H](NC(=O)[C@H](Cc1ccc(O)cc1)NC(=O)[C@H](CC(N)=O)NC(=O)[C@H](CC(N)=O)NC(=O)[C@@H](NC(=O)[C@H](CCC(=O)O)NC(=O)[C@H](CCCNC(=N)N)NC(=O)[C@H](CC(=O)O)NC(=O)[C@H](Cc1c[nH]c2ccccc12)NC(=O)[C@H](CCC(=O)O)NC(=O)[C@H](CCSC)NC(=O)[C@H](Cc1c[nH]c2ccccc12)NC(=O)CCCCCNC(=O)[C@H](CS)NC(C)=O)[C@@H](C)CC)[C@@H](C)O)[C@@H](C)CC)C(=O)N[C@@H](CCC(=O)O)C(=O)N[C@@H](CCC(=O)O)C(=O)N[C@@H](CO)C(=O)O (Ac-C[Ahx]WMEWDREINNYTSLIHSLIEES-OH) | 2.21 | 561 nM |  | 
CC[C@H](C)[C@H](NC(=O)[C@H](CC(C)C)NC(=O)[C@H](CCC(=O)O)NC(=O)[C@H](CCC(=O)O)NC(=O)[C@@H](NC(=O)[C@H](CCCCN)NC(=O)[C@H](CCCCN)NC(=O)[C@@H](NC(=O)[C@H](Cc1ccc(O)cc1)NC(=O)[C@H](CCC(=O)O)NC(=O)[C@H](CCC(=O)O)NC(=O)[C@@H](NC(=O)[C@H](CCCCN)NC(=O)[C@H](CCCCN)NC(=O)[C@H](CC(=O)O)NC(=O)[C@H](Cc1c[nH]c2ccccc12)NC(=O)[C@H](CCC(=O)O)NC(=O)[C@H](CCC(=O)O)NC(=O)[C@H](Cc1c[nH]c2ccccc12)NC(=O)CCCCCNC(=O)[C@H](CS)NC(C)=O)[C@@H](C)CC)[C@@H](C)O)[C@@H](C)CC)C(=O)N[C@@H](CCCCN)C(=O)N[C@@H](CCCCN)C(=O)N[C@@H](CO)C(=O)O (Ac-C[Ahx]WEEWDKKIEEYTKKIEELIKKS-OH) |  | 38.6 nM | 8.97 | 
CC[C@H](C)[C@H](NC(=O)[C@H](CC(C)C)NC(=O)[C@H](CO)NC(=O)[C@H](Cc1cnc[nH]1)NC(=O)[C@@H](NC(=O)[C@H](CC(C)C)NC(=O)[C@H](CO)NC(=O)[C@@H](NC(=O)[C@H](Cc1ccc(O)cc1)NC(=O)[C@H](CC(N)=O)NC(=O)[C@H](CC(N)=O)NC(=O)[C@@H](NC(=O)[C@H](CCC(=O)O)NC(=O)[C@H](CCCNC(=N)N)NC(=O)[C@H](CC(=O)O)NC(=O)[C@H](Cc1c[nH]c2ccccc12)NC(=O)[C@H](CCC(=O)O)NC(=O)[C@H](CCSC)NC(=O)[C@H](Cc1c[nH]c2ccccc12)NC(C)=O)[C@@H](C)CC)[C@@H](C)O)[C@@H](C)CC)C(=O)N[C@@H](CCC(=O)O)C(=O)N[C@@H](CCC(=O)O)C(=O)N[C@@H](CO)C(=O)N[C@@H](CCC(N)=O)C(=O)N[C@@H](CC(N)=O)C(=O)N[C@@H](CCC(N)=O)C(=O)N[C@@H](CCC(N)=O)C(=O)N[C@@H](CCC(=O)O)C(=O)N[C@@H](CCCCN)C(=O)N[C@@H](CC(N)=O)C(=O)NCCCCCC(=O)N[C@@H](CS)C(=O)O (Ac-WMEWDREINNYTSLIHSLIEESQNQQEKN[Ahx]C-OH) |  | 203 nM |  | 0.58
CC[C@H](C)[C@H](NC(=O)[C@H](CC(C)C)NC(=O)[C@H](CO)NC(=O)[C@H](Cc1cnc[nH]1)NC(=O)[C@@H](NC(=O)[C@H](CC(C)C)NC(=O)[C@H](CO)NC(=O)[C@@H](NC(=O)[C@H](Cc1ccc(O)cc1)NC(=O)[C@H](CC(N)=O)NC(=O)[C@H](CC(N)=O)NC(=O)[C@@H](NC(=O)[C@H](CCC(=O)O)NC(=O)[C@H](CCCNC(=N)N)NC(=O)[C@H](CC(=O)O)NC(=O)[C@H](Cc1c[nH]c2ccccc12)NC(=O)[C@H](CCC(=O)O)NC(=O)[C@H](CCSC)NC(=O)[C@H](Cc1c[nH]c2ccccc12)NC(=O)CCNC(=O)[C@H](CS)NC(C)=O)[C@@H](C)CC)[C@@H](C)O)[C@@H](C)CC)C(=O)N[C@@H](CCC(=O)O)C(=O)N[C@@H](CCC(=O)O)C(=O)N[C@@H](CO)C(=O)N[C@@H](CCC(N)=O)C(=O)N[C@@H](CC(N)=O)C(=O)N[C@@H](CCC(N)=O)C(=O)N[C@@H](CCC(N)=O)C(=O)N[C@@H](CCC(=O)O)C(=O)N[C@@H](CCCCN)C(=O)N[C@@H](CC(N)=O)C(=O)O (Ac-C[βAla]WMEWDREINNYTSLIHSLIEESQNQQEKN-OH) |  | 19.7 nM |  | 6.01
